{"source": "patent US20140024662A1", "about": "“COMPOUNDS, SCREENS, AND METHODS OF TREATMENT” (Shanghai Institute of Organic Chemistry, priority 2006, published 2014)"}
{"tested_on": "FADD-deficient Jurkat cells", "assay": "necroptosis assay: FADD-deficient Jurkat cells treated with TNFα, cell viability", "type": "cell-based, human", "conditions": "FADD-deficient Jurkat cells treated with TNFα; call rule not given here", "from_the_text": "(§1) Herein we describe the structure activity analysis of Nec-5 analogs."}
{"smiles": "N#CCSc1nc2sc3ccccc3c2c(=O)n1-c1ccc2c(c1)OCO2", "note": "[Compound 146]", "activity in the necroptosis assay, in words": "potent inhibitor"}
{"smiles": "N#CCSc1nc2sc3c(c2c(=O)n1-c1ccc(OC(F)(F)F)cc1)CCC3", "note": "[Compound 167]", "activity in the necroptosis assay, in words": "showed some, albeit greatly reduced, activity"}
{"tested_on": "FADD-deficient Jurkat cells", "assay": "necroptosis assay: FADD-deficient Jurkat cells treated with TNFα, cell viability", "type": "cell-based, human", "conditions": "effective concentration for half-maximum response; inhibition of necroptosis in FADD-deficient Jurkat cells treated with TNFα", "from_the_text": "as §1"}
{"smiles": "CSc1nc2sc3c(c2c(=O)n1-c1ccc(C)c(C)c1)CCC3", "note": "[Compound 142]", "EC50": "inactive"}
{"smiles": "CCOc1ccc(-n2c(SCC#N)nc3sc4ccccc4c3c2=O)cc1", "note": "[Compound 145]", "EC50": "inactive"}
{"smiles": "N#CCSc1nc2sc3ccccc3c2c(=O)n1-c1ccc(OC(F)(F)F)cc1", "note": "[Compound 147]", "EC50": "inactive"}
{"smiles": "CN(C)c1ccc(-n2c(SCC#N)nc3sc4ccccc4c3c2=O)cc1", "note": "[Compound 148]", "EC50": "inactive"}
{"smiles": "CCOc1ccc(-n2c(SC)nc3sc4ccccc4c3c2=O)cc1", "note": "[Compound 151]", "EC50": "inactive"}
{"smiles": "CSc1nc2sc3ccccc3c2c(=O)n1-c1ccc2c(c1)OCO2", "note": "[Compound 152]", "EC50": "inactive"}
{"smiles": "CSc1nc2sc3ccccc3c2c(=O)n1-c1ccc(OC(F)(F)F)cc1", "note": "[Compound 153]", "EC50": "inactive"}
{"smiles": "Cc1sc2nc(SCC#N)n(-c3ccc(OCc4ccccc4)cc3)c(=O)c2c1C", "note": "[Compound 155]", "EC50": "inactive"}
{"smiles": "Cc1sc2nc(SCC#N)n(-c3ccc(N(C)C)cc3)c(=O)c2c1C", "note": "[Compound 157]", "EC50": "inactive"}
{"smiles": "CCOc1ccc(-n2c(SC)nc3sc(C)c(C)c3c2=O)cc1", "note": "[Compound 158]", "EC50": "inactive"}
{"smiles": "CSc1nc2sc(C)c(C)c2c(=O)n1-c1ccc(OCc2ccccc2)cc1", "note": "[Compound 159]", "EC50": "inactive"}
{"smiles": "CSc1nc2sc(C)c(C)c2c(=O)n1-c1ccc(OC(F)(F)F)cc1", "note": "[Compound 160]", "EC50": "inactive"}
{"smiles": "CSc1nc2sc(C)c(C)c2c(=O)n1-c1ccc(N(C)C)cc1", "note": "[Compound 161]", "EC50": "inactive"}
{"smiles": "N#CCSc1nc2sccc2c(=O)n1-c1ccccc1", "note": "[Compound 162]", "EC50": "inactive"}
{"smiles": "N#CCSc1nc2sc3c(c2c(=O)n1-c1ccccc1)CCC3", "note": "[Compound 163]", "EC50": "inactive"}
{"smiles": "CCOc1ccc(-n2c(SCC#N)nc3sc4c(c3c2=O)CCC4)cc1", "note": "[Compound 164]", "EC50": "inactive"}
{"smiles": "N#CCSc1nc2sc3c(c2c(=O)n1-c1ccccc1)CCCCC3", "note": "[Compound 165]", "EC50": "inactive"}
{"smiles": "COc1ccc(-n2c(SCC#N)nc3sc4c(c3c2=O)CCC(C)C4)cc1OC", "note": "(centres unmarked) [Compound 166]", "EC50": "inactive"}
{"smiles": "N#CCSc1nc2sc3c(c2c(=O)n1-c1ccc(OC(F)(F)F)cc1)CCCCC3", "note": "[Compound 168]", "EC50": "inactive"}
{"smiles": "COc1ccc(-n2c(SCC#N)nc3sc4c(c3c2=O)CCC4)cc1OC", "note": "[Compound 169]", "EC50": "inactive"}
{"smiles": "C=CCSc1nc2sc3c(c2c(=O)n1-c1ccccc1)CCCC3", "note": "[Compound 170]", "EC50": "inactive"}
{"smiles": "O=c1c2c3c(sc2nc(SCc2ccccc2)n1-c1ccccc1)CCCC3", "note": "[Compound 171]", "EC50": "inactive"}
{"smiles": "CSc1nc2sccc2c(=O)n1-c1ccccc1", "note": "[Compound 173]", "EC50": "inactive"}
{"smiles": "COc1ccc(-n2c(SC)nc3sc4c(c3c2=O)CCC(C)C4)cc1OC", "note": "(centres unmarked) [Compound 174]", "EC50": "inactive"}
{"smiles": "CCSc1nc2sc3c(c2c(=O)n1-c1ccccc1)CCCCC3", "note": "[Compound 175]", "EC50": "inactive"}
{"smiles": "C#CCSc1nc2sc(C)c(C)c2c(=O)n1-c1ccc2c(c1)OCO2", "note": "[Compound 176]", "EC50": "inactive"}
{"smiles": "C#CCSc1nc2sc(C)c(CC)c2c(=O)n1-c1ccc2c(c1)OCO2", "note": "[Compound 177]", "EC50": "inactive"}
{"smiles": "CCOc1ccc(-n2c(SC)nc3sc4c(c3c2=O)CCC4)cc1", "note": "[Compound 178]", "EC50": "inactive"}
{"smiles": "CCc1c(C)sc2nc(SCCO)n(-c3ccc4c(c3)OCO4)c(=O)c12", "note": "[Compound 180]", "EC50": "inactive"}
{"smiles": "CCN1CCc2c(sc3nc(SC)n(-c4ccccc4)c(=O)c23)C1", "note": "[Compound 181]", "EC50": "inactive"}
{"smiles": "CSc1nc2sc3c(c2c(=O)n1-c1ccc(OC(F)(F)F)cc1)CCC3", "note": "[Compound 182]", "EC50": "inactive"}
{"tested_on": "FADD-deficient Jurkat cells", "assay": "necroptosis assay: FADD-deficient Jurkat cells treated with TNFα, cell viability", "type": "cell-based, human", "conditions": "effective concentration for half-maximum response; inhibition of necroptosis in FADD-deficient Jurkat cells treated with TNFα; read-out: EC50", "from_the_text": "as §1", "units": {"EC50": "µM"}}
{"smiles": "N#CCSc1nc2sc3ccccc3c2c(=O)n1-c1ccc(F)cc1", "note": "[Compound 144]", "EC50": 3.06}
{"smiles": "N#CCSc1nc2sc3ccccc3c2c(=O)n1-c1ccc2c(c1)OCO2", "note": "[Compound 146]", "EC50": 0.27}
{"smiles": "CSc1nc2sc3ccccc3c2c(=O)n1-c1ccc(F)cc1", "note": "[Compound 150]", "EC50": 3.06}
{"smiles": "CCOc1ccc(-n2c(SCC#N)nc3sc(C)c(C)c3c2=O)cc1", "note": "[Compound 154]", "EC50": 7.77}
{"smiles": "Cc1sc2nc(SCC#N)n(-c3ccc(OC(F)(F)F)cc3)c(=O)c2c1C", "note": "[Compound 156]", "EC50": 3.7}
{"smiles": "N#CCSc1nc2sc3c(c2c(=O)n1-c1ccc(OC(F)(F)F)cc1)CCC3", "note": "[Compound 167]", "EC50": 3.7}
{"tested_on": "FADD-deficient Jurkat cells", "assay": "necroptosis assay: FADD-deficient Jurkat cells treated with TNFα, cell viability", "type": "cell-based, human", "conditions": "max viability obtained in the presence of a compound; FADD-deficient Jurkat cells treated with TNFα", "from_the_text": "as §1"}
{"smiles": "N#CCSc1nc2sc3ccccc3c2c(=O)n1-c1ccc2c(c1)OCO2", "note": "[Compound 146]", "Max Prot": "100%"}
{"smiles": "CN(C)c1ccc(-n2c(SCC#N)nc3sc4ccccc4c3c2=O)cc1", "note": "[Compound 148]", "Max Prot": "inactive"}
{"smiles": "CCOc1ccc(-n2c(SCC#N)nc3sc(C)c(C)c3c2=O)cc1", "note": "[Compound 154]", "Max Prot": "97%"}
{"smiles": "Cc1sc2nc(SCC#N)n(-c3ccc(OC(F)(F)F)cc3)c(=O)c2c1C", "note": "[Compound 156]", "Max Prot": "63%"}
{"smiles": "N#CCSc1nc2sc3c(c2c(=O)n1-c1ccc(OC(F)(F)F)cc1)CCC3", "note": "[Compound 167]", "Max Prot": "70%"}
